The values below come from ChEMBL document CHEMBL1144557, “The novel C-5 aryl, alkenyl, and alkynyl substituted uracil derivatives of L-ascorbic acid: synthesis, cytostatic, and antiviral activity evaluations” (Bioorg Med Chem, 2007).

Values after ≈ are worked out from the molar mass of the structure shown. Where only a bound is given, the exact number is not on record here.

One assay relates to Vaccinia virus. As to the kind of experiment: Antiviral activity against Vaccinia virus-induced cytopathogenicity in E6SM cells. It is filed as functional. To be noted: Orthopoxvirus vaccinia. (In general: Cytopathic effects are the visible damage that an infection or toxin causes in cultured cells.)
On to `O=C1O/C(=C\Cn2cc(-c3ccccc3)c(=O)[nH]c2=O)C(OCc2ccccc2)=C1OCc1ccccc1`, for which the MIC is 95 µM (≈ 48.3 µg/mL).
On the same count and under the same terms, in the case of `O=C1O/C(=C(\Br)Cn2c(Br)c(/C=C/Br)c(=O)[nH]c2=O)C(OCc2ccccc2)=C1OCc1ccccc1` it was more than 116 µM; in that of `CC#Cc1cn(C/C=C2\OC(=O)C(OCc3ccccc3)=C2OCc2ccccc2)c(=O)[nH]c1=O`, more than 0.4 µM; in that of `O=C1O/C(=C\Cn2cc(-c3cccs3)c(=O)[nH]c2=O)C(OCc2ccccc2)=C1OCc1ccccc1`, more than 156 µM.
`O=C1O/C(=C\Cn2cc(-c3ccc(Cl)o3)c(=O)[nH]c2=O)C(OCc2ccccc2)=C1OCc1ccccc1` displayed an MIC of more than 150 µM.
Consider `C=Cc1cn(C/C=C2\OC(=O)C(O)=C2O)c(=O)[nH]c1=O`, for which the MIC is more than 144 µM.
Same read-out and setting: in the case of `O=C1O/C(=C\Cn2cc(C#Cc3ccccc3)c(=O)[nH]c2=O)C(OCc2ccccc2)=C1OCc1ccccc1` it was more than 40 µM.
As to `O=C1O/C(=C\Cn2cc(/C=C/Br)c(=O)[nH]c2=O)C(OCc2ccccc2)=C1OCc1ccccc1`, the MIC is more than 150 µM.
Still for that read-out and setting: in the case of `C=CCc1cn(C/C=C2\OC(=O)C(OCc3ccccc3)=C2OCc2ccccc2)c(=O)[nH]c1=O` it was more than 8 µM; in that of `O=C1O/C(=C\Cn2cc(-c3ccco3)c(=O)[nH]c2=O)C(OCc2ccccc2)=C1OCc1ccccc1`, more than 6.4 µM; in that of `O=C1O/C(=C\Cn2cc(-c3ccc(Br)o3)c(=O)[nH]c2=O)C(OCc2ccccc2)=C1OCc1ccccc1`, more than 70 µM.
For the molecule `C=C=Cc1cn(C/C=C2\OC(=O)C(OCc3ccccc3)=C2OCc2ccccc2)c(=O)[nH]c1=O`, the MIC was more than 8 µM.
Consider `Nc1nc2c(ncn2COCCO)c(=O)[nH]1` [ACYCLOVIR], for which the MIC was 300 µM (≈ 67.6 µg/mL).
Same read-out and setting: in the case of `O=c1[nH]c(=O)n([C@H]2C[C@H](O)[C@@H](CO)O2)cc1/C=C/Br` [BRIVUDINE] it was 2.4 µM (≈ 0.8 µg/mL); in that of `Nc1nc2c(ncn2COC(CO)CO)c(=O)[nH]1` [GANCICLOVIR], 60 µM (≈ 15.3 µg/mL); in that of `NC(=O)c1ncn([C@@H]2O[C@H](CO)[C@@H](O)[C@H]2O)n1` [RIBAVIRIN], 100 µM (≈ 24.4 µg/mL).

The test system of a further assay is Vaccinia virus. In words: Antiviral activity against Vaccinia virus-induced cytopathogenicity in HEL cells. The settings on record: Orthopoxvirus vaccinia. In kind it is functional.
Regarding `C=Cc1cn(C/C=C2\OC(=O)C(OCc3ccccc3)=C2OCc2ccccc2)c(=O)[nH]c1=O`, the MIC was more than 18 µM.
Take `O=C1O/C(=C\Cn2cc(C#Cc3ccccc3)c(=O)[nH]c2=O)C(O)=C1O`: the MIC came to 4 µM (≈ 1.41 µg/mL).
The same measure, in the same setting: in the case of `C#Cc1cn(C/C=C2\OC(=O)C(O)=C2O)c(=O)[nH]c1=O` it was 4 µM (≈ 1.1 µg/mL); in that of `O=C1O/C(=C\Cn2cc(-c3ccco3)c(=O)[nH]c2=O)C(O)=C1O`, more than 100 µM.
In the case of `C#Cc1cn(C/C=C2\OC(=O)C(OCc3ccccc3)=C2OCc2ccccc2)c(=O)[nH]c1=O`, the MIC was more than 18 µM.
Regarding `O=C1O/C(=C\Cn2cc(-c3ccccc3)c(=O)[nH]c2=O)C(O)=C1O`, the MIC was more than 100 µM.
On to `CC(C)=CCc1cn(C/C=C2\OC(=O)C(OCc3ccccc3)=C2OCc2ccccc2)c(=O)[nH]c1=O`, for which the MIC was 4 µM (≈ 2 µg/mL).
On the same count and under the same terms, next, `O=C1O/C(=C\Cn2cc(-c3cccs3)c(=O)[nH]c2=O)C(O)=C1O`: more than 100 µM.
